Tests used:
SALL4 ZNF1-2 = biological target: T1, SALL4 ZNF1-2 (Homo sapiens, UniProt Q96SW2+Q9UJQ4); assay: Cellular degradation assay, eGFP-SALL4 ZnF1-2 fusion with mCherry reporter in Flp-In 293 cells; type: cell-based; conditions: 5 h incubation, n=1
T1 construct: IKZF1Δ, IKZF2Δ, GSPT1 and SALL4 ZnF1-2 were subcloned; expressed in transfected cells; host or cells: Flp-In 293
Description: IKZF1Δ, IKZF2Δ, GSPT1 and SALL4 ZnF1-2 were subcloned into mammalian pcDNA5/FRT Vector (Ampicillin and Hygromycin B resistant) modified to contain MCS-eGFP-P2A-mCherry. Stable cell lines expressing eGFP-protein fusion and mCherry reporter were generated using Flp-In™ 293 system. Plasmid (0.3 μg) and pOG44 (4.7 μg) DNA were preincubated in 100 μL of Opti-MEM® I (Gibco®, Life Technologies™) media containing 0.05 mg/mL Lipofectamine® 2000 (Invitrogen™) for 20 min and added to Flp-In™ 293 cells containing 1.9 ml of DMEM media (Gibco®, Life Technologies™) per well in a 6-well plate format (Falcon, 353046). Cells were propagated after 48 h and transferred into a 10 cm^2 plate (Corning, 430165) in DMEM media containing 50 μg/mL of Hygromycin B (REF 10687010, Invitrogen™) as a selection marker. Following 2-3 passage cycle, FACS (FACSAria™ II, BD) was used to enrich for cells expressing eGFP and mCherry. Cells stably expressing the IKZF1Δ, IKZF2Δ, GSPT1 or SALL4 Znf1-2 GFP fusions with mCherry reporter were seeded at 30-50% confluency in 384-well plates with 50 μL FluoroBrite™ DMEM media (Thermo Fisher Scientific, A18967) containing 10% FBS per well a day before compound treatment. Compound titrations were dispensed using a D300e Digital Dispenser (HP), normalized to 0.5% DMSO, and incubated with cells for 5 hours. The assay plate was imaged immediately using an Acumen® High Content Imager (TTP Labtech) with 488 nm and 561 nm lasers in […] grid per well format.
The resulting images were analyzed using CellProfiler™. A series of image analysis steps (‘image analysis pipeline’) was constructed. First, the red and green channels were aligned and cropped to target the middle of each well (to avoid analysis of heavily clumped cells at the edges), and a background illumination function was calculated for both red and green channels of each well individually and subtracted to correct for illumination variations across the 384-well plate from various sources of error. An additional step was then applied to the green channel to suppress the analysis of large auto fluorescent artifacts and enhance the analysis of cell specific fluorescence by way of selecting for objects under a given size, 30 A.U., and with a given shape, speckles. mCherry-positive cells were then identified in the red channel filtering for objects between 8-60 pixels in diameter and using intensity to distinguish between clumped objects. The green channel was then segmented into GFP positive and negative areas and objects were labeled as GFP positive if at least 40% of it overlapped with a GFP positive area. The fraction of GFP-positive cells/mCherry-positive cells in each well was then calculated, and the green and red images were rescaled for visualization.

CRBN and Helios (IKZF2) = biological target: T2, CRBN and Helios (IKZF2) (Homo sapiens, UniProt Q96SW2+Q9UKS7); assay: TR-FRET dimerization assay (CRBN-IKZF2 ternary complex formation); type: binding; conditions: n=1
T2 construct: His (N); Strep (N)
T2 sequence (Q96SW2 whole entry): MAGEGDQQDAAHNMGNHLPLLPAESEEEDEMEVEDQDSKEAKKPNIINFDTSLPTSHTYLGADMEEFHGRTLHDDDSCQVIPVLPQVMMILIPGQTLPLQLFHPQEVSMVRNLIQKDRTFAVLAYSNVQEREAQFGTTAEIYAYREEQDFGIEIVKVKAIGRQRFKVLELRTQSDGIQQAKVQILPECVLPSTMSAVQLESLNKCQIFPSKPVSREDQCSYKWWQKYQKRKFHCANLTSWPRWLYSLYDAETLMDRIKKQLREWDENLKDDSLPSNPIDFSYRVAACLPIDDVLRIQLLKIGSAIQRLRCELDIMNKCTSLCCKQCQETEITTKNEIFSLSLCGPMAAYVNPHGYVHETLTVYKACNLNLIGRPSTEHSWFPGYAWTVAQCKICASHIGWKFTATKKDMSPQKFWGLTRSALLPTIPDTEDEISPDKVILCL
T2 sequence (Q9UKS7 whole entry): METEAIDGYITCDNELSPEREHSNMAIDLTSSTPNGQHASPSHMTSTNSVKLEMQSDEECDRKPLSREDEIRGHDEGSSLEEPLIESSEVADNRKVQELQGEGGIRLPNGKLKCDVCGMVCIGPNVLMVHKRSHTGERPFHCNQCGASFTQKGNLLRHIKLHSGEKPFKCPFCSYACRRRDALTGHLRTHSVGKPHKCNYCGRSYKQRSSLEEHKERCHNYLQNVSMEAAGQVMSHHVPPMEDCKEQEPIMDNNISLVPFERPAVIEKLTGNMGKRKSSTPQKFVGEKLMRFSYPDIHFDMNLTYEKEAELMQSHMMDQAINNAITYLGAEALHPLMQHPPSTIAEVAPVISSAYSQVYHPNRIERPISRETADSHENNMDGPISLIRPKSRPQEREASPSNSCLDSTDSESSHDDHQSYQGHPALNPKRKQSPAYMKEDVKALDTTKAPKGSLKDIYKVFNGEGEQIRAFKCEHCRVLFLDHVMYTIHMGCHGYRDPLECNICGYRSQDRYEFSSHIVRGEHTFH
Summary of the method: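 BODIPY-labeled DDB1ΔB-CRBN and in vitro biotinylated IKZF2 were treated with increasing compound concentrations plus tracer Terbium-Streptavidin and incubated 15 min at rt. Recruitment was quantified as the 520/490 nm TR-FRET ratio; values are single measurements (n=1), each averaged from at least three technical replicates.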

GSPT1 = GSPT1 (Homo sapiens, UniProt P15170+Q96SW2); assay: Cellular degradation assay, eGFP-GSPT1 fusion with mCherry reporter in Flp-In 293 cells; type: cell-based; parameters: expressed in transfected cells; host or cells: Flp-In 293; conditions: for GSPT1 GFP/RFP Relative Abundance: 5 h incubation, n=1
Sequence of GSPT1 (P15170 whole entry, the tested form may be a part): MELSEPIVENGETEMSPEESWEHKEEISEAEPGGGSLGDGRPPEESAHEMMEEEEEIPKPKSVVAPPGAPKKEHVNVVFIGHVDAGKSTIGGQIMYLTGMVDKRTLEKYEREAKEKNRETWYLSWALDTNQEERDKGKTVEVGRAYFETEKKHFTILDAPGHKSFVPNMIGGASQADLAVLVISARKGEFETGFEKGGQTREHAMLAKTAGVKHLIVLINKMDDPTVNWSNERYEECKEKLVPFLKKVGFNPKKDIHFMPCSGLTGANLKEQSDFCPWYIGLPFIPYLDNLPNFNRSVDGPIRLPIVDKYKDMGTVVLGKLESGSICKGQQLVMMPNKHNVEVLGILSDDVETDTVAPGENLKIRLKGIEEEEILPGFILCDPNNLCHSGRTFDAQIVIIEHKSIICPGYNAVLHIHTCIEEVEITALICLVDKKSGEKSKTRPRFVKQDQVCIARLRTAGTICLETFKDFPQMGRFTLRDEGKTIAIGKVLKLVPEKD
Sequence of GSPT1 (Q96SW2 whole entry, the tested form may be a part): as the sequence (Q96SW2 whole entry) above
Sequence of GSPT1 (Q16531 whole entry partner, the tested form may be a part): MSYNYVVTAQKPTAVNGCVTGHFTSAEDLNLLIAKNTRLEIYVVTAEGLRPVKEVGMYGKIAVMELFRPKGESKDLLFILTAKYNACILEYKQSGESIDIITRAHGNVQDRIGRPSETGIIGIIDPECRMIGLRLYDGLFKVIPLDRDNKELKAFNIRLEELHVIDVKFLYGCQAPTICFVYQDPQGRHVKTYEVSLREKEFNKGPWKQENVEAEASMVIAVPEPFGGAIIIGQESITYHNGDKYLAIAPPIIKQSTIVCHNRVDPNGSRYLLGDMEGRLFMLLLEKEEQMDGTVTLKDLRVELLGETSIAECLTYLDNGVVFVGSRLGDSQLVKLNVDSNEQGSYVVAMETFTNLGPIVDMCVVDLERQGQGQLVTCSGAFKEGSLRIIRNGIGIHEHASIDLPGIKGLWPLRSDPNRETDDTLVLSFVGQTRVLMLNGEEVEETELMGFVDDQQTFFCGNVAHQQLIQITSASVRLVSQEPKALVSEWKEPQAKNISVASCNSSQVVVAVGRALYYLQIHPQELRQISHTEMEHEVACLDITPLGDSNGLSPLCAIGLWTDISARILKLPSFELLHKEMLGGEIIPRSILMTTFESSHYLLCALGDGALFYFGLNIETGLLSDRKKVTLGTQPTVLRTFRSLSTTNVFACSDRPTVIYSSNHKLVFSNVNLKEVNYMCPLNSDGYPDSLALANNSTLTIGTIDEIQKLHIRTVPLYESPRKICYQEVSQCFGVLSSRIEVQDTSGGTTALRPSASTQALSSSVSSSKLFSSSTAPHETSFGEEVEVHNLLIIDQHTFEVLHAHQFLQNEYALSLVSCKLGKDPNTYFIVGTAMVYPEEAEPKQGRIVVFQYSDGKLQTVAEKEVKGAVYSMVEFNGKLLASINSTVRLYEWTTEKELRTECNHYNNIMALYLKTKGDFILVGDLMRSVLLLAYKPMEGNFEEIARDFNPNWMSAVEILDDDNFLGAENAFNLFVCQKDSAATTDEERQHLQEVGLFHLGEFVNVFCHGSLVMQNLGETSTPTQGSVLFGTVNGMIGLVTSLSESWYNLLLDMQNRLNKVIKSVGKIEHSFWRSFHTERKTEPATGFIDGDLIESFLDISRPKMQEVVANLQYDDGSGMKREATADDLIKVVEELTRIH
Summary of the method: (§1)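 Flp-In 293 cells stably expressing eGFP-tagged degron fusions with P2A-mCherry reporter were treated with compound titrations (0.5% DMSO) for 5 hours. Imaging quantified GFP-positive/mCherry-positive cell fraction per well; DC50 at 5 h from nonlinear variable-slope fit.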

IKZF2 = assay: Cellular degradation assay, eGFP-IKZF2Δ fusion with mCherry reporter in Flp-In 293 cells; type: cell-based; conditions: for IKZF2 GFP/RFP Relative Abundance: 5 h incubation, n=1
Summary of the method: as §1

IKZF1 = biological target: T3, IKZF1 (Homo sapiens, UniProt Q13422); assay: Cellular degradation assay, eGFP-IKZF1Δ fusion with mCherry reporter in Flp-In 293 cells; type: cell-based; conditions: for IKZF1 GFP/RFP Relative Abundance: 5 h incubation, n=1
T3 construct: expressed in transfected cells; host or cells: Flp-In 293
T3 sequence (Q13422 83-213 isoform Q13422-7 limits assumed): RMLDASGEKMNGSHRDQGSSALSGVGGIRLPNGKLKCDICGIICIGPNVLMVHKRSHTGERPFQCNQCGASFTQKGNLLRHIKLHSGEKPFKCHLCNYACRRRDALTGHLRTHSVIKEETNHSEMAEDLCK
T3 sequence (Q96SW2 whole entry partner, the tested form may be a part): as the sequence (Q96SW2 whole entry) above
T3 sequence (Q16531 2-1140 partner limits assumed): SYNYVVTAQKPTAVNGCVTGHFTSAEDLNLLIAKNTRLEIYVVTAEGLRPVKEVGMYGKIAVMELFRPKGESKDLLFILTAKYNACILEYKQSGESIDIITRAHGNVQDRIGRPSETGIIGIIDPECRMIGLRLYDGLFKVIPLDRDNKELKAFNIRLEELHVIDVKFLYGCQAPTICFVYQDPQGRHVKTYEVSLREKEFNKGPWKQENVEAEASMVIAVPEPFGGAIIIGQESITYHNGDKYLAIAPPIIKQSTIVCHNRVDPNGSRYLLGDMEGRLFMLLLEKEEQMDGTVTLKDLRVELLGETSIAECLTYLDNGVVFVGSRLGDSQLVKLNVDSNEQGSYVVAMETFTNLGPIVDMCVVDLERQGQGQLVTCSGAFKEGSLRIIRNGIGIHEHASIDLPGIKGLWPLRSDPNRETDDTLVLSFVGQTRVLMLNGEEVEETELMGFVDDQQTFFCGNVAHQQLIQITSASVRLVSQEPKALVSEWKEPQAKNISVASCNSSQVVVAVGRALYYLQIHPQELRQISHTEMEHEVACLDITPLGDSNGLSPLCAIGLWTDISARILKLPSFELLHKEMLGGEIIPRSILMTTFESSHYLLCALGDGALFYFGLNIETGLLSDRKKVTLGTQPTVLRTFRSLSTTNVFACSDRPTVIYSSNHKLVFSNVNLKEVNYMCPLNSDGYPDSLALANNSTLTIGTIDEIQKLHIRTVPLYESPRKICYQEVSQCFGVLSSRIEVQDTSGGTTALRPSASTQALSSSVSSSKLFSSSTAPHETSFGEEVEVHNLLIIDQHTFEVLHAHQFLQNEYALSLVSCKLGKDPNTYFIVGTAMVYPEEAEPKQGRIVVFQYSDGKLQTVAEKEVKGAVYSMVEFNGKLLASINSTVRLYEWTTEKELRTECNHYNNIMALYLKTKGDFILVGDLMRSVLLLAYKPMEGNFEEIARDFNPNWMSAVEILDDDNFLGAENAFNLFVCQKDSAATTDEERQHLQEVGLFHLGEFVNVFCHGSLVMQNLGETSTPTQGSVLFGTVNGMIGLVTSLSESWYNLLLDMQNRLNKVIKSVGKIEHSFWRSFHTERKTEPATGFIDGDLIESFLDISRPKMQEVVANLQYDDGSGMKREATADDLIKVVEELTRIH
Summary of the method: as §1

[1] = compound concentration 2.00E−05
[2] = compound concentration 2.00E−06
[3] = compound concentration 2.00E−07
[4] = compound concentration 6.6667E−05
[5] = compound concentration 6.6667E−06
[6] = compound concentration 6.6667E−07 (667 nM)
[7] = half degradation at 5 h (DC50,5 h), triplicate, 11 point dose response

T1 sequence (Q9UJQ4 378-438 limits assumed): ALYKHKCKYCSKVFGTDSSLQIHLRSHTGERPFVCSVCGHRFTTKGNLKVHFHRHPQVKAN
T1 sequence (Q96SW2 whole entry, the tested form may be a part): as the sequence (Q96SW2 whole entry) above
T1 sequence (Q16531 whole entry partner, the tested form may be a part): as the sequence (Q16531 whole entry partner, the tested form may be a part) above

SMILES | SALL4 ZNF1-2 GFP/RFP Relative Abundance (SALL4 ZNF1-2; [1]) | SALL4 ZNF1-2 GFP/RFP Relative Abundance (SALL4 ZNF1-2; [2]) | SALL4 ZNF1-2 GFP/RFP Relative Abundance (SALL4 ZNF1-2; [3]) | TR-FRET-IKZF2 (Normalized to CC-885) (CRBN and Helios (IKZF2); [4]) | TR-FRET-IKZF2 (Normalized to CC-885) (CRBN and Helios (IKZF2); [5]) | TR-FRET-IKZF2 (Normalized to CC-885) (CRBN and Helios (IKZF2); [6]) | GSPT1 GFP/RFP Relative Abundance (GSPT1; [1]) | GSPT1 GFP/RFP Relative Abundance (GSPT1; [2]) | GSPT1 GFP/RFP Relative Abundance (GSPT1; [3]) | IKZF2 GFP/RFP Relative Abundance (IKZF2; [1]) | IKZF2 GFP/RFP Relative Abundance (IKZF2; [2]) | IKZF2 GFP/RFP Relative Abundance (IKZF2; [3]) | IKZF1 GFP/RFP Relative Abundance (IKZF1; [1]) | IKZF1 GFP/RFP Relative Abundance (IKZF1; [2]) | IKZF1 GFP/RFP Relative Abundance (IKZF1; [3]) | DC50 (GSPT1; [7]) [nM] | potency of IKZF2 degradation, in words (IKZF2; Table 3 summary) | degradation selectivity IKZF2/IKZF1 (IKZF2; from DC50 values of Table 3) [fold] | DC50 (IKZF2; [7]) [nM] | DC50 (IKZF1; [7]) [nM]
Cc1ccc(NC2=CC(=O)N(C3CCC(=O)NC3=O)C2=O)cc1C#N (centres unmarked) [Compound 5, 5-((1-(2,6-dioxopiperidin-3-yl)-2,5-dioxo-2,5-dihydro-1H-pyrrol-3-yl)amino)-2-methylbenzonitrile] | 1.008 | 0.946 | 0.992 | 0.376 | 0.296 | 0.187 | 0.714 | 0.843 | 1.050 | 0.930 | 1.000 | 1.020 | 0.395 | 0.478 | 0.650 | – | – | – | – | –
COC(=O)CNC1=CC(=O)N(C2CCC(=O)NC2=O)C1=O (centres unmarked) [Compound 13, Methyl (1-(2,6-dioxopiperidin-3-yl)-2,5-dioxo-2,5-dihydro-1H-pyrrol-3-yl)glycinate] | 0.962 | 1.017 | 1.017 | 0.032 | 0.028 | 0.019 | 1.172 | 1.162 | 1.004 | 1.040 | 1.005 | 1.070 | 1.069 | 1.076 | 1.058 | – | – | – | – | –
COC(=O)CCNC1=CC(=O)N(C2CCC(=O)NC2=O)C1=O (centres unmarked) [Compound 14, Methyl 3-((1-(2,6-dioxopiperidin-3-yl)-2,5-dioxo-2,5-dihydro-1H-pyrrol-3-yl)amino)propanoate] | 0.955 | 0.944 | 0.983 | 0.046 | 0.040 | 0.022 | 1.058 | 1.018 | 0.915 | 1.022 | 0.982 | 1.040 | 1.033 | 1.031 | 1.043 | – | – | – | – | –
CCC(NC(=O)Nc1ccc(C)c(Cl)c1)c1cccc(NC2=CC(=O)N(C3CCC(=O)NC3=O)C2=O)c1 (centres unmarked) [Compound 74, 1-(3-chloro-4-methylphenyl)-3-(1-(3-((1-(2,6-dioxopiperidin-3-yl)-2,5-dioxo-2,5-dihydro-1H-pyrrol-3-yl)amino)phenyl)propyl)urea] | – | – | – | 2.010 | 1.914 | 1.817 | – | – | – | 0.021 | 0.033 | 0.032 | 0.096 | 0.090 | 0.114 | > 1000 | most potent against IKZF2 | ~4 | 1.9 | 7.8
